# Experimental data published in PMC7689490, “Designed CXCR4 mimic acts as a soluble chemokine receptor that blocks atherogenic inflammation by agonist-specific targeting” (Nature Communications, 2020).
# Values joined by “and” are separate entries in the source; they are usually repeats but may differ in a detail not shown here. Equal values may be shown once. “Also recorded” adds a separate entry of the source.
# Assays:
# [1] = tested on: carotid arteries of Apoe−/− mice; assay: Leukocyte adhesion in ex vivo mounted atherosclerotic carotid arteries under flow (MPM); parameters: species or system mouse
# Description: Monocyte adhesion experiments in atherosclerotic carotid arteries under physiological flow conditions ex vivo have been established[14],[75] and were performed by a slight modification of this procedure. Briefly, seven-week-old Apoe^−/− mice were fed a Western-type HFD (0.2% cholesterol) for 12 weeks. […] On day 3, arteries were prepared and mounted into an arteriograph chamber. […] Mouse leukocytes isolated from the bone marrow of msR4M-L1- or vehicle-treated atherogenic Apoe^−/− mice were stained with fluorescent Green CMFDA or Red CMPTX (Thermo Fisher Scientific). […] The red- and green-stained cell pools were mixed at a 1:1 ratio and 3 × 10^6 cells in 6 mL perfused into the artery of msR4M-L1- or vehicle-treated mice, respectively. Arteries were scanned by MPM using a multispectral TCS SP8 DIVE instrument with filter-free 4TUNE NDD detection module (Leica) and the number of adherent and transmigrated leukocytes determined by scanning multiphoton excitation. Vessel structure (and plaques) were visualized by second harmonic generation (SHG). Image acquisition, visualization, and processing was performed using the LAS X SP8 software package with LAS X 3D visualization and analysis (Leica) and LAS X HyVolution 2 packages from Leica/SVI Huygens, (Laapersveld, NL).
# [2] = tested on: human CXCR4; assay: MIF-triggered CXCR4-specific signaling in yeast (lacZ read-out); assay type: cell-based; conditions: co-incubation with MIF
# Description: Briefly, yeast transformants stably expressing human CXCR4 were grown overnight at 30 °C in yeast nitrogen base selective medium (Formedium, UK). Cells were diluted to an OD600 of 0.2 and grown to an OD600 of 0.3–0.6. […] OD600 was measured and activation of CXCR4 signaling quantified by β-galactosidase activity using a commercial BetaGlo Kit (Promega, Mannheim, Germany).
# [3] = tested on: primary human monocyte-derived macrophages; assay: MIF-mediated DiI-LDL uptake / foam cell formation; assay type: cell-based; conditions: 80 nM MIF
# Description: After washing with imaging solution (MEM without phenol red containing 30 mM HEPES, 0.5 g/L NaHCO3, pH 7.4, and 0.2% BSA), cells were exposed to 50 µg mL^−1 1,1′-dioctadecyl-3,3,3′3′-tetramethylindocarbocyanine-labeled oxidized LDL (DiI-oxLDL) or DiI-labeled native LDL (DiI-LDL) for 30 min at 4 °C, followed by incubation at 37 °C for 20 min. Cells were washed with ice-cold imaging solution (pH 3.5), fixed, and counter-stained with Hoechst 33258.
# [4] = in vivo; conditions: C57BL/6, mouse, ip, 50 ug per mouse
# Description: Plasma was immediately separated by centrifugation at 3000 rpm for 10 min at 4 °C, and placed on ice protected from light. Plasma aliquots were diluted (1:1) with SDS-PAGE sample buffer, boiled, analyzed in 10–20% Tricine SDS-PAGE gels, and red fluorescent bands imaged by Odyssey® Fc imager.
smiles,measurement,setting,value
"CC[C@H](C)[C@H](NC(=O)[C@H](Cc1ccc(O)cc1)NC(=O)[C@H](CCCNC(=N)N)NC(=O)[C@H](CC(=O)O)NC(=O)CCCCCCCCCCCNC(=O)CCCCCNC(=O)[C@H](CCCCN)NC(=O)[C@H](CS)NC(=O)[C@H](CC(C)C)NC(=O)[C@H](Cc1ccccc1)NC(=O)[C@H](CC(N)=O)NC(=O)CNC(=O)[C@H](Cc1ccccc1)NC(=O)[C@H](Cc1ccc(O)cc1)NC(=O)[C@H](Cc1c[nH]c2ccccc12)NC(=O)[C@H](CC(N)=O)NC(=O)[C@H](C)NC(=O)[C@@H](NC(=O)[C@H](C)NC(=O)[C@@H](N)CC(=O)O)C(C)C)C(=O)N[C@@H](CS)C(=O)N[C@@H](CC(=O)O)C(=O)N[C@@H](CCCNC(=N)N)C(=O)N[C@@H](Cc1ccccc1)C(=O)N[C@@H](Cc1ccc(O)cc1)C(=O)N1CCC[C@H]1C(=O)N[C@@H](CC(N)=O)C(=O)N[C@@H](CC(=O)O)C(=O)N[C@@H](CC(C)C)C(=O)N[C@@H](Cc1c[nH]c2ccccc12)C(=O)N[C@H](C(N)=O)C(C)C [msR4M-L1, CXCR4-ECL1[97–110]-6-Ahx-12-Ado-ECL2[182–196]]",number of luminally adhering leukocytes,"[1]; msR4M-L1 100 µg once daily for 3 days before vessel harvest, 5–6 carotid arteries per group",significantly reduced
same,"Fig. 5l, leukocyte adhesion in ex vivo mounted carotid arteries","[1]; msR4M-L1 group, individual values, n = 6",12 and 45 and 36 and 16 and 32
same,effect on MIF-triggered CXCR4 reporter signal,[2],blocked the β-galactosidase reporter signal in a concentration-dependent manner
same,inhibition of MIF-mediated DiI-LDL uptake,[3],"dose-dependently inhibited; also recorded: slightly better than that of ISO-1, but lower than that of NIH/IIID.9"
same,level at time molar,[4],20 to 50 nM
